{"source": "patent US20040116535A1", "about": "“Use” (priority 2001, published 2004)", "key": {"tinnitus [1]": {"tested_on": "tinnitus", "settings": "difference to placebo (30%) not significant; cited from earlier work"}, "GABA": {"tested_on": "GABA", "settings": "cited from earlier work"}, "[2]": {"settings": "cited from earlier work"}, "tinnitus [3]": {"tested_on": "tinnitus", "settings": "300 mg mex per day orally for one or two weeks; cited from earlier work"}, "tinnitus [4]": {"tested_on": "tinnitus", "settings": "32 patients; 200 mg 3 times daily for 30 days; cited from earlier work"}, "tinnitus [5]": {"tested_on": "tinnitus"}, "allodynia": {"tested_on": "allodynia", "assay": "Different allodynia model, i.v. injected mex enantiomers (Nordmark and Schött, unpublished observations)", "type": "in vivo", "settings": "25 mg/kg i.v."}, "inferior colliculus": {"tested_on": "inferior colliculus", "settings": "activity believed to be representative of tinnitus; cited from earlier work"}, "[6]": {"tested_on": "allodynia from rat nerve root ligation", "settings": "cited from earlier work"}, "tinnitus [7]": {"tested_on": "tinnitus", "settings": "tocainide infusion; placebo infusion 5%; cited from earlier work"}, "tinnitus [8]": {"tested_on": "tinnitus", "settings": "no statistically significant difference to placebo (35%); cited from earlier work"}}, "note": "Entries after “also recorded” stand apart in the source; their conditions may differ. Where two headings read alike, the source gives them in different places."}
{"compound": "CNCCC=C1c2ccccc2CCc2ccccc21", "note": "[nortriptyline]", "values": [{"measurement": "reduction of tinnitus sensation", "setting": "tinnitus [1]", "result": 43, "unit": "%"}]}
{"compound": "1-(2,6-dimethylphenoxy)-propanamine [mexiletine]", "values": [{"measurement": "effect on GABA", "setting": "GABA", "result": "stimulating effect"}, {"measurement": "difference between peak and trough", "setting": "[2]; after administration every 8 hours", "result": "more than 30%"}, {"measurement": "half-life", "setting": "[2]; human, in vivo", "result": "about 8 hours"}, {"measurement": "patients showing no effect", "setting": "tinnitus [3]", "result": 65, "unit": "%"}, {"measurement": "subjects showing an effect above 50%", "setting": "tinnitus [3]", "result": 14.6, "unit": "%"}, {"measurement": "effect on tinnitus compared with placebo", "setting": "tinnitus [4]", "result": "not superior to placebo"}, {"measurement": "tinnitus intensity reduction (VAS)", "setting": "tinnitus [5]; Case 1, 500 mg mexiletine infused over 120 min, after 118 min", "result": 95, "unit": "%"}, {"measurement": "time after which tinnitus returned to normal", "setting": "tinnitus [5]; Case 2, 500 mg mexiletine", "result": 1, "unit": "h"}, {"measurement": "level to which tinnitus was reduced", "setting": "tinnitus [5]; Case 2, 500 mg mexiletine, shortly before the infusion stopped", "result": 60, "unit": "%"}, {"measurement": "time after which tinnitus returned to base level", "setting": "tinnitus [5]; Case 2, 550 mg mexiletine over 90 min", "result": 100, "unit": "min"}, {"measurement": "tinnitus (VAS)", "setting": "tinnitus [5]; Case 2, 550 mg mexiletine over 90 min, after 60 min", "result": "completely vanished"}, {"measurement": "increase in tinnitus intensity", "setting": "tinnitus [5]; Case 2, 550 mg mexiletine over 90 min, after 214 min", "result": "about 40%"}, {"measurement": "reduction in tinnitus intensity", "setting": "tinnitus [5]; Case 3, mexiletine", "result": "small reductions; also recorded: moderate"}, {"measurement": "side effects", "setting": "tinnitus [5]; human, in vivo", "result": "no side effects"}]}
{"compound": "Cc1cccc(C)c1OC[C@H](C)N", "note": "[(S+)-mex]", "values": [{"measurement": "side effects", "setting": "allodynia", "result": "so severe that pain measurements were not possible"}]}
{"compound": "CCN(CC)CC(=O)Nc1c(C)cccc1C", "note": "[lidocaine]", "values": [{"measurement": "effect on GABA", "setting": "GABA", "result": "stimulating effect"}, {"measurement": "side effects", "setting": "tinnitus [5]; Case 1, 100 mg lidocaine i.v.", "result": "no side effects"}, {"measurement": "tinnitus intensity reduction (VAS)", "setting": "tinnitus [5]; Case 1, 100 mg lidocaine i.v. over 5 min, 70 min after the start", "result": 96, "unit": "%"}, {"measurement": "time after which tinnitus returned to the initial level", "setting": "tinnitus [5]; Case 2, lidocaine i.v.", "result": "about 2 min"}, {"measurement": "tinnitus (VAS)", "setting": "tinnitus [5]; Case 2, lidocaine i.v., 30 s after injection", "result": "no tinnitus"}, {"measurement": "tinnitus increase above the base level", "setting": "tinnitus [5]; Case 2, lidocaine i.v., at 30 min", "result": 46, "unit": "%"}, {"measurement": "tinnitus (VAS)", "setting": "tinnitus [5]; Case 2, lidocaine i.v., less than one min after the start of the injection", "result": "vanished completely"}, {"measurement": "reduction in tinnitus intensity", "setting": "tinnitus [5]; Case 3, lidocaine", "result": "small reductions; also recorded: moderate"}, {"measurement": "side effects", "setting": "tinnitus [5]; Case 3, lidocaine", "result": "no side effects"}, {"measurement": "increased spontaneous activity in the inferior colliculus", "setting": "inferior colliculus", "result": "abolished"}]}
{"compound": "Cc1cccc(C)c1OC[C@@H](C)N", "note": "[(R−)-mex]", "values": [{"measurement": "pain relief (allodynia) compared between the mex enantiomers", "setting": "[6]", "result": "considerably greater"}]}
{"compound": "Cc1cccc(C)c1NC(=O)C(C)N", "note": "(stereo not drawn) [tocainide]", "values": [{"measurement": "effect on GABA", "setting": "GABA", "result": "stimulating effect"}, {"measurement": "reduction in tinnitus intensity", "setting": "tinnitus [7]", "result": 50, "unit": "%"}]}
{"compound": "NC(=O)N1c2ccccc2C=Cc2ccccc21", "note": "[carbamazepine]", "values": [{"measurement": "positive results for the drug", "setting": "tinnitus [8]", "result": 45, "unit": "%"}]}
